Reference: publication PMC8196580, “Identification of Kaurane-Type Diterpenes as Inhibitors of Leishmania Pteridine Reductase I” (Molecules, 2021)
Read-outs that look alike come from different tables or passages of the source.

Tests used:
LmPTR1 = biological target: T1, LmPTR1 (Leishmania major, UniProt Q01782); assay: LmPTR1 enzyme inhibition assay (spectrophotometric, NADPH oxidation at 340 nm); type: biochemical; conditions: for IC50: NADPH 250 µM, pH 6.0, 30 °C, 0.1–128 µM
T1 construct: made in house
T1 sequence (Q01782 1-288): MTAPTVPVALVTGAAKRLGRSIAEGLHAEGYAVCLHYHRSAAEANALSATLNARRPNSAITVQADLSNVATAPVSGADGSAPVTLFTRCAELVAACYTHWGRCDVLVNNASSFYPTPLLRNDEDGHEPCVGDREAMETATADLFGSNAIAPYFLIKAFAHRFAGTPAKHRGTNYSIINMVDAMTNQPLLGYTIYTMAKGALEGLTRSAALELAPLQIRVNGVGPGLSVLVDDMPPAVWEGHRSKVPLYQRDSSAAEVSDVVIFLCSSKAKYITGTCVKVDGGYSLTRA
Description: The selected synthetic diterpene esters 135, 301, 302, 301a, and 302a were tested in vitro to experimentally determine their abilities to inhibit the enzymatic activity of LmPTR1 as an extension of the results provided by the in silico screening. […] The IC50 was then calculated for the tested diterpenes, and these values were used to calculate the apparent inhibitory constant (Ki^app) (Table 3) using the Cheng–Prusoff equation, assuming reversible competitive inhibition and 1:1 stoichiometry. PMA, a known PTR1 inhibitor, was used as a positive control. […] Therefore, a reasonable inference based on this small set of compounds is that the presence of a p-hydroxyl group at the phenylpropanoid moiety might favor inhibitory activity, whereas a 9β-hydroxyl group at the diterpene moiety has a negative influence on LmPTR1 inhibition.
Recombinant LmPTR1 enzyme was obtained, purified, and kinetically characterized, as reported previously. The in vitro assessment of selected diterpenes (i.e., 135, 301, 302, 301a, and 302a) for LmPTR1 inhibitory activity was performed through the spectrophotometric monitoring of the enzymatic activity under balanced conditions: LmPTR1 (30 µg), 7,8-dihydro-L-biopterin (DHB, 20 µM), sodium citrate buffer (20 mM, pH 6.0), 30 °C, and a final assay volume of 600 µL. Each reaction was started by the addition of 250 µM NADPH. Absorbance was monitored at 340 nm (i.e., oxidation of NADPH to NADP+) for 240 s, and the resulting profile was used to measure the initial reaction rate (IRR) through the respective slope by linear regression. All recordings were performed in triplicate. PMA was used as the positive control. The resulting IRR values were used to calculate the % inhibition, as 100 − (Ri/Rc × 100), where Ri is the IRR in the presence of the inhibitor and Rc is the IRR in the absence of inhibitors (1% DMSO v/v final concentration). The % inhibition for at least five concentrations (range: 0.1–128 µM) for each test compound (diterpenes and PMA) were calculated, and concentration-response curves (% inhibition vs. Log[inhibitor]) were obtained by non-linear regression to determine the IC50 using GraphPad Prism 5.0 (GraphPad, San Diego, CA, USA). Finally, Ki^app values were calculated using the Cheng–Prusoff equation for competitive inhibition, assuming a 1:1 stoichiometry and that the inhibitor-binding reactions are reversible: Ki^app = IC50/(1 + [S]/Km), where [S] is the substrate (DHB) concentration and Km is the Michaelis constant. The substrate Km was calculated during the kinetic characterization of purified, recombinant LmPTR1.

L. major [1] = assay: ChEMBL dataset of pIC50 values against L. major used for the RF model (Table S1); type: cell-based, Leishmania major; further: call rule not given here
L. major [2] = test system: L. major; parameters: method as in ChEMBL; conditions: ref ChEMBL, cited from earlier work
[3] = recombinant LmPTR1, DHB 20 µM, read-out: IC50
[4] = Active/Inactive class assigned to ChemBL structures for Random forest model construction (Table S1)
[5] = ChemBL structures with pIC50 values used for Random forest model construction (Table S1)
[6] = Active/Inactive class assigned to the ChEMBL pIC50 value for Random forest model construction, ref ChEMBL
[7] = ChemBL structures with pIC50 values used for Random forest model construction, L. major

| SMILES | Outcome (L. major [1]; [6]) | pIC50 Value (L. major [2]; [7]) | further results |
| --- | --- | --- | --- |
| C=C1CC23CCC4C(C)(C(=O)O)C(OC(=O)C=Cc5ccc(O)cc5)CCC4(C)C2(O)CCC1C3 (stereo not drawn) [301a, 3α-p-coumaroyloxy-9β-hydroxy-ent-kaur-16-en-19-oic Acid] | – | – | Ki (LmPTR1; read-out: Ki^app): 5.08 µM; IC50 (LmPTR1; [3]): 23.2 µM |
| C=C1CC23CCC4C(C)(CCC(OC(=O)C=Cc5ccc(O)cc5)C4(C)C(=O)O)C2CCC1C3 (stereo not drawn) [302a, 3α-p-coumaroyloxy-ent-kaur-16-en-19-oic acid] | – | – | improvement of inhibitory activity versus 302 (LmPTR1; 3α-p-coumaroyloxy instead of 3α-cinnamoyloxy): approximately 60%; Ki (LmPTR1; read-out: Ki^app): 1.33 µM; IC50 (LmPTR1; [3]): 6.1 µM |
| C#CCOc1ccc(/C=N/NC(N)=S)cc1OC [CHEMBL4159578] | – | – | Outcome (L. major [1]; [4]): Active; pIC50 Value (L. major [2]; [5]): 5.85 |
| COc1cc(/C=N\NC(N)=S)ccc1OCc1cn(CC(=O)c2ccc(Br)cc2)nn1 [CHEMBL4159895] | Active | 5.29 | – |
| COc1cc(OCC=C(C)C)ccc1C(=O)/C=C/c1ccc([N+](=O)[O-])cc1 [CHEMBL4161584] | – | – | Outcome (L. major [1]; [4]): Active; pIC50 Value (L. major [2]; [5]): 5.48 |
| C#CCOc1ccc(C(=O)/C=C/c2ccc(F)cc2)c(OCC#C)c1 [CHEMBL4162285] | Active | 5.00 | – |
| COc1cc(/C=N/NC(N)=S)ccc1OCc1cn(CC(=O)c2ccc(C)cc2)nn1 [CHEMBL4163267] | – | – | Outcome (L. major [1]; [4]): Active; pIC50 Value (L. major [2]; [5]): 5.30 |
| COc1ccc(/C=N\NC(N)=S)cc1OCc1cn(CC(=O)c2ccc(Cl)cc2)nn1 [CHEMBL4163696] | – | – | Outcome (L. major [1]; [4]): Active; pIC50 Value (L. major [2]; [5]): 5.77 |
| COc1cc(/C=N\NC(N)=S)ccc1OCc1cn(CC(=O)c2ccc(Cl)cc2)nn1 [CHEMBL4164916] | Active | 5.27 | – |
| COc1ccc(/C=N/NC(N)=S)cc1OCc1cn(-c2ccc(S(N)(=O)=O)cc2)nn1 [CHEMBL4165645] | – | – | Outcome (L. major [1]; [4]): Active; pIC50 Value (L. major [2]; [5]): 5.36 |
| C/C(=N/NC(N)=S)c1ccc(OCc2cn(CC(=O)c3ccc(Br)cc3)nn2)cc1 [CHEMBL4166113] | – | – | Outcome (L. major [1]; [4]): Active; pIC50 Value (L. major [2]; [5]): 6.00 |
| COc1ccc(/C=N/NC(N)=S)cc1OCc1cn(CC(=O)c2ccc(F)cc2)nn1 [CHEMBL4167146] | – | – | Outcome (L. major [1]; [4]): Active; pIC50 Value (L. major [2]; [5]): 5.32 |
| C/C(=N/NC(N)=S)c1ccc(OCc2cn(-c3ccc(C(=O)O)cc3)nn2)cc1 [CHEMBL4169531] | Active | 5.13 | – |
| COc1cc(/C=N/NC(N)=S)ccc1OCc1cn(CC(=O)c2ccc(F)cc2)nn1 [CHEMBL4170543] | Active | 5.16 | – |
| COc1ccc(/C=N\NC(N)=S)cc1OCc1cn(CC(=O)c2ccccc2)nn1 [CHEMBL4171583] | – | – | Outcome (L. major [1]; [4]): Active; pIC50 Value (L. major [2]; [5]): 5.36 |
| COc1ccc(/C=N/NC(N)=S)cc1OCc1cn(CC(=O)c2ccc(C)cc2)nn1 [CHEMBL4173573] | – | – | Outcome (L. major [1]; [4]): Active; pIC50 Value (L. major [2]; [5]): 5.66 |
| COc1cc(/C=N/NC(N)=S)ccc1OCc1cn(-c2ccc(C(=O)O)cc2)nn1 [CHEMBL4173978] | Active | 5.24 | – |
| COc1ccc(/C=N/NC(N)=S)cc1OCc1cn(-c2ccc(C(=O)O)cc2)nn1 [CHEMBL4174032] | – | – | Outcome (L. major [1]; [4]): Active; pIC50 Value (L. major [2]; [5]): 5.30 |
| COc1ccc(/C=N\NC(N)=S)cc1OCc1cn(CC(=O)c2ccc(Br)cc2)nn1 [CHEMBL4175020] | Active | 5.24 | – |
| COc1cc(/C=N\NC(N)=S)ccc1OCc1cn(CC(=O)c2ccccc2)nn1 [CHEMBL4175538] | Active | 5.27 | – |
| C/C(=N/NC(N)=S)c1ccc(OCc2cn(-c3ccc(S(N)(=O)=O)cc3)nn2)cc1 [CHEMBL4177394] | Active | 5.08 | – |

| SMILES | Outcome (L. major [1]; [6]) | pIC50 Value (L. major [2]; [7]) | further results |
| --- | --- | --- | --- |
| CC1(C)C2CCC1(C)[C@H](OC(=O)/C=C/c1ccc(O)c(O)c1)C2 (stereo partly shown) [CHEMBL4177500] | Inactive | 4.31 | – |
| CC(C)N1CN(CC(=O)O)CSC1=S [CHEMBL4277354] | Inactive | 3.86 | – |
| CCCCN1CSC(=S)N(CC(=O)O)C1 [CHEMBL4278695] | Inactive | 4.44 | – |
| CCCN1CN(CC(=O)OCC)CSC1=S [CHEMBL4279218] | Inactive | 3.97 | – |
| CC(c1ccccc1)N1CN(CCO)CSC1=S (stereo not shown) [CHEMBL4279631] | Inactive | 4.49 | – |
| CCCN1CSC(=S)N(CC(=O)O)C1 [CHEMBL4282164] | Inactive | 4.16 | – |
| CC(C)N1CSC(=S)N(C(C)c2ccccc2)C1 (stereo not shown) [CHEMBL4283106] | Inactive | 4.67 | – |
| CCCCN1CN(CC(=O)O)CSC1=S [CHEMBL4283328] | Inactive | 4.61 | – |
| CCN1CN(CC(=O)O)CSC1=S [CHEMBL4284377] | Inactive | 4.48 | – |
| CCN1CSC(=S)N(C(C)c2ccccc2)C1 (stereo not shown) [CHEMBL4286479] | Inactive | 4.34 | – |
| CC(c1ccccc1)N1CN(CC(=O)O)CSC1=S (stereo not shown) [CHEMBL4286679] | Inactive | 4.51 | – |
| CCCCN1CSC(=S)N(C(C)c2ccccc2)C1 (stereo not shown) [CHEMBL4287541] | Inactive | 4.67 | – |
| CCCN1CN(CC(=O)O)CSC1=S [CHEMBL4287780] | Inactive | 4.41 | – |
| CCCN1CN(CC(=O)OCc2ccccc2)CSC1=S [CHEMBL4289905] | Inactive | 4.03 | – |
| O=C(O)CN1CN(CCO)CSC1=S [CHEMBL4290046] | Inactive | 4.40 | – |
| CCCN1CSC(=S)N(C(C)c2ccccc2)C1 (stereo not shown) [CHEMBL4290968] | Inactive | 4.62 | – |
| COc1ccc(CN2CN(CC(=O)O)CSC2=S)cc1OC [CHEMBL4291183] | Inactive | 4.81 | – |
| CCCCN1CN(CC(=O)OCC)CSC1=S [CHEMBL4294357] | Inactive | 4.44 | – |
| CCCN1CN(CC(=O)OC)CSC1=S [CHEMBL4294585] | Inactive | 3.69 | – |
| CCN1CSC(=S)N(CC(=O)O)C1 [CHEMBL4294782] | Inactive | 4.34 | – |
| CCc1nc(N)nc(N)c1-c1ccc(Cl)cc1 [PMA, pyrimethamine, reference compound] | – | – | Ki (LmPTR1): 0.24 µM; IC50 (LmPTR1; IC50, recombinant LmPTR1, DHB 20 µM): 1.11 µM |
